From patent publication US20260138976A1 (Hoffmann-La Roche Inc., priority 2022, published 2026)

Key:
DGK α kinase = target: T1, DGK α kinase (Homo sapiens, UniProt P23743); assay: DGKalpha kinase ADP Glo assay run by Reaction Biology Corp.; assay type: biochemical; settings: 2 nM kinase, 50 µM ATP, 500 μM DLG, 10-dose duplicate
T1 construct: purchased Reaction Biology Corp. (contract assay service)
Description: DGK α and ζ kinases use ATP to phosphorylate the substrate 1,2-dilauroyl-sn-glycerol (DLG). ATP is converted to ADP as a result of this enzymatic reaction.
After the kinase reaction, an ATP-depletion reagent is added to terminate the kinase reaction and deplete any remaining ATP, leaving only ADP. Second, a detection reagent is added to simultaneously convert ADP to ATP and allow the newly synthesized ATP to be converted to light using a coupled luciferase/luciferin reaction.
DGK α and ζ kinase ADP Glo assays were ran by Reaction Biology Corp., 1 Great Valley Parkway, Suite 2, Malvern, 19355, PA, USA. Information provided by the service provider are the following: DGK α and ζ kinases were used at 2 nM final concentration. Reactions were carried out at 50 µM ATP. 500 μM of the substrate DLG (Dilauroyl-sn-glycerol) was used.

primary human T-cells = assay: IL2 secretion measurements (24 h, CD3-stimulated T-cells, PBS counter screen); assay type: cell-based; settings: for Emax IL2 (% activation): CD3 condition, normalised to DMSO (neutral) and 20 μM reference compound A1 = 100%; for EC50: Homo sapiens, T-cell, CD3-stimulated primary human T-cells, IL2 secretion, fitted sigmoidal curve, read-out: Tcell IL2 CD3 EC50
In short: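 Expanded primary human T-cells (100k/well) were plated on anti-CD3-coated or PBS-only plates with compound in a 5–6 point dose response (top 20 or 10 μM final, 3.333-fold, 0.2% DMSO). IL-2 in 24 h supernatants was quantified by ProQuantum immunoassay or ELISA. Values were normalized to DMSO and 20 μM reference compound A1 (100%), giving EC50 and Emax.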

T1 sequence (P23743 whole entry): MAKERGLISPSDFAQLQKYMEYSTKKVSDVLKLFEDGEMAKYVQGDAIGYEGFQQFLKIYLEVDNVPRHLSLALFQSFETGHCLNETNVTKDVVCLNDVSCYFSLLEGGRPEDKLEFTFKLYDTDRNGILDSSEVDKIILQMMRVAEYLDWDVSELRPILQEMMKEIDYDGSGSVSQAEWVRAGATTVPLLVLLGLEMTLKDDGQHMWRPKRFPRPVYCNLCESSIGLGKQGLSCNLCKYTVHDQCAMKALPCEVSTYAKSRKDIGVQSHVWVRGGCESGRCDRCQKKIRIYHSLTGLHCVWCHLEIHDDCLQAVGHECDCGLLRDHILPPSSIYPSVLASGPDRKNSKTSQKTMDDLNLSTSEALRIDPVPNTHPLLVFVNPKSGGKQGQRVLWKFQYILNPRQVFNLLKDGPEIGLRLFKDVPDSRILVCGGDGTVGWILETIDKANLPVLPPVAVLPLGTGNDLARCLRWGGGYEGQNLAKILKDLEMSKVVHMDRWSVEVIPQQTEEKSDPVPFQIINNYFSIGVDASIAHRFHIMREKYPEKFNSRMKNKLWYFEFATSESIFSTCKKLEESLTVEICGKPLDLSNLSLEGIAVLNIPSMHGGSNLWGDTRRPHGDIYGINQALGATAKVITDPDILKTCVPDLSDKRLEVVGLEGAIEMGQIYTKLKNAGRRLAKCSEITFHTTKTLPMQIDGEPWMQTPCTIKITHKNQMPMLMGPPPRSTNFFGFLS

Row | Compound | IC50 (DGK α kinase) [nM] | Emax IL2 (% activation) (primary human T-cells) | EC50 (primary human T-cells) [nM]
1 | CC(N)(c1nnc(-c2ccc3c(c2)N(Cc2ccc(-c4noc(C(F)(F)F)n4)cc2)C(=O)[C@@H](N)CS3(=O)=O)o1)C(F)(F)F (stereo partly drawn) [Example 32, (3R)-3-amino-7-[5-(1-amino-2,2,2-trifluoro-1-methyl-ethyl)-1,3,4-oxadiazol-2-yl]-1,1-dioxo-5-[[4-[5-(trifluoromethyl)-1,2,4-oxadiazol-3-yl]phenyl]methyl]-2,3-dihydro-1λ^6,5-benzothiazepin-4-one] | 173 | 321 | 1920
2 | N[C@H]1CS(=O)(=O)c2ccc(-c3nnc(C4(C5CC5)CCCO4)o3)cc2N(Cc2ccc(-c3noc(C(F)(F)F)n3)cc2)C1=O (stereo partly drawn) [Example 36, (3R)-3-amino-7-[5-(2-cyclopropyl-tetrahydrofuran-2-yl)-1,3,4-oxadiazol-2-yl]-1,1-dioxo-5-[[4-[5-(trifluoromethyl)-1,2,4-oxadiazol-3-yl]phenyl]methyl]-2,3-dihydro-1λ^6,5-benzothiazepin-4-one] | 58.5 | 223 | 616
3 | N[C@H]1CS(=O)(=O)c2ccc(-c3nnc(C4(N)CCCCC4)o3)cc2N(Cc2ccc(-c3noc(C(F)(F)F)n3)cc2)C1=O [Example 39, (3R)-3-amino-7-[5-(1-aminocyclohexyl)-1,3,4-oxadiazol-2-yl]-1,1-dioxo-5-[[4-[5-(trifluoromethyl)-1,2,4-oxadiazol-3-yl]phenyl]methyl]-2,3-dihydro-1λ^6,5-benzothiazepin-4-one] | 94.6 | 143 | 622

More lines, main results first:

Row | IC50 (DGK α kinase) [nM] | Compound | Emax IL2 (% activation) (primary human T-cells) | EC50 (primary human T-cells) [nM]
4 | 11.1 | CC(C)(C#N)c1nnc(-c2cc3c(cc2F)S(=O)(=O)C[C@H](N)C(=O)N3Cc2ccc(-c3ccc(C(F)(F)F)cn3)cc2)o1 [Example 88, 2-[5-[(3R)-3-amino-8-fluoro-1,1,4-trioxo-5-[[4-[5-(trifluoromethyl)-2-pyridyl]phenyl]methyl]-2,3-dihydro-1λ^6,5-benzothiazepin-7-yl]-1,3,4-oxadiazol-2-yl]-2-methyl-propanenitrile] | 121 | 264
5 | 44.7 | CC(O)(c1nnc(-c2ccc3c(c2)N(Cc2ccc(-c4noc(C(F)(F)F)n4)cc2)C(=O)[C@@H](N)CS3(=O)=O)o1)C(F)(F)F (stereo partly drawn) [Example 96, (3R)-3-amino-1,1-dioxo-7-[5-(2,2,2-trifluoro-1-hydroxy-1-methyl-ethyl)-1,3,4-oxadiazol-2-yl]-5-[[4-[5-(trifluoromethyl)-1,2,4-oxadiazol-3-yl]phenyl]methyl]-2,3-dihydro-1λ^6,5-benzothiazepin-4-one] | 232 | 1360
